# Experimental data reported in PubChem BioAssay AID1919001 (Molecular Pharmacology Branch, DTP, NCI, 2023).
# Test system: 699152-130-R-J1-PDC complex spheroid growth
# Test: Anticancer human tumor 699152-130-R-J1-PDC patient-derived pancreatic carcinoma cell line growth inhibition [AhR]
# Conditions: for IC50: curve of first compound; for viability, T/C: stronger effect = lower value
# Excerpt: Multicellular complex tumor spheroid response to aryl hydrocarbon receptor antagonists in combination with a variety of drugs and investigational agents in selected tumor cell lines
# The current study was undertaken to assess response to aryl hydrocarbon receptor antagonists in combination with standard-of-care drugs and investigational agents in solid tumor complex spheroid models. Complex spheroids include a stromal component modeled by human endothelial cells (HUVEC) and fibroblasts modeled by human mesenchymal stem cells (MSCs). The concentration ranges selected for each drug and investigational agent were based upon clinically achievable concentrations if the clinical Cmax of the agent was known.
# Compounds. The drugs and investigational agents: BAY 2416964 (NSC825713), GNF351 (NSC835774), CH-223191 (NSC835775), CPI-455 (NSC825282), aza-TdCyd (NSC777586), decitabine (NSC127716), belinostat (NSC758774), entinostat (NSC756642), pevonedistat (NSC761192), tazemetostat (NSC777109), talazoparib (NSC765396), olaparib (NSC753686), selinexor (NSC780203), nedisertib (M3814, NSC802822), bortezomib (NSC756655), venetoclax (NSC766270), doxorubicin (NSC123127), elimusertib (BAY189344, NSC800525), ceralasertib (AZD6738, NSC777638), TAK-243 (NSC785004), alisertib (NSC759677), etoposide (NSC141540), topotecan (NSC609699), eribulin (NSC707389), gemcitabine (NSC613327), carboplatin (NSC241240), cisplatin (NSC119875), and SN-38 (NSC673596) were obtained from the National Cancer Institute (NCI) Developmental Therapeutics Program Chemical Repository (32). The FDA-approved anticancer drug set is available from the Developmental Therapeutics Program at https://dtp.cancer.gov/organization/dscb/obtaining/available plates.htm. […] The stock solutions were prepared in dimethyl sulfoxide (DMSO, Sigma-Aldrich, St. Louis, MO, cat. D2650), except for the platinum compounds which were prepared in saline (Quality Biological, Gaithersburg, MD, cat. 114-055-101), at 800-fold the tested concentration and stored at -70 degrees C prior to their use. All drugs and investigational agents were tested over a range starting from a high concentration at or near the clinical Cmax and decreasing in half-log increments. If the clinical Cmax for an agent had not been determined, the highest concentration tested was 10 microM (Table 1).
# Cell Culture. All cells were maintained in an incubator at 37 degrees C and 5% CO2 with 95% humidity. The PDC lines were cultured according to standard operating procedures established by the NCI PDMR (https://pdmr.cancer.gov). Briefly, all PDCs were thawed and cultured in Matrigel-coated flasks prepared with a working solution of 1X Ham's F-12 nutrient mix, without supplementation (Invitrogen, Waltham, MA, cat. 11765054), 100 U/mL penicillin-streptomycin (Invitrogen, cat. 15140122), and 2.5% Matrigel (Corning Inc., Corning, NY, cat. 354248) for the first three passages. All PDCs were cultured in complete DMEM/F-12 media containing advanced DMEM/F-12 (Invitrogen, cat. 12634028), 4.9% defined fetal bovine serum, heat inactivated (HyClone Laboratories Inc., Logan, UT, cat. SH30070.03HI), 389 ng/mL hydrocortisone (Sigma-Aldrich, cat. H4001), 9.7 ng/mL human EGF recombinant protein (Invitrogen, cat. PHG0313), 23.4 microg/mL adenine (Sigma-Aldrich, cat. A2786), 97.3 U/mL penicillin-streptomycin (Invitrogen, cat. 15140122), 1.9 mM L-glutamine (Invitrogen, cat. 25030081), and 9.7 microM Y-27632 dihydrochloride (Tocris Bioscience, Bristol, United Kingdom, cat. 1254). The PDCs were cultured in complete DMEM/F12 media without 10 microM Y-27632 dihydrochloride for at least two passages prior to the screen. The established cell lines NCI-H1341 and […] were cultured in DMEM/F-12, HEPES (Invitrogen, cat. 11330032), 5% defined fetal bovine serum (HyClone Laboratories Inc., cat. SH30070.03), ITS premix universal culture supplement [insulin (5 microg/mL), transferrin (5 microg/mL), and selenious acid (5 ng/mL)] […]
# [1] = second compound 0.1 µM, first compound 0.0316 µM
# [2] = second compound 0.1 µM, first compound 0.1 µM
# [3] = second compound 0.1 µM, first compound 0.316 µM
# [4] = second compound 0.1 µM, first compound 1 µM
# [5] = second compound 0.1 µM, first compound 3.16 µM
# [6] = second compound 0.1 µM, first compound 10 µM
# [7] = second compound 0.316 µM, first compound 0.0316 µM
# [8] = second compound 0.316 µM, first compound 0.1 µM
# [9] = second compound 0.316 µM, first compound 0.316 µM
# [10] = second compound 0.316 µM, first compound 1 µM
# [11] = second compound 0.316 µM, first compound 3.16 µM
# [12] = second compound 0.316 µM, first compound 10 µM
# [13] = second compound 1 µM, first compound 0.0316 µM
# [14] = second compound 1 µM, first compound 0.1 µM
# [15] = second compound 1 µM, first compound 0.316 µM
# [16] = second compound 1 µM, first compound 1 µM
# [17] = second compound 1 µM, first compound 3.16 µM
# [18] = second compound 1 µM, first compound 10 µM
# [19] = second compound 3.16 µM, first compound 0.0316 µM
# [20] = second compound 3.16 µM, first compound 0.1 µM
# [21] = second compound 3.16 µM, first compound 0.316 µM
# [22] = second compound 3.16 µM, first compound 1 µM
# [23] = second compound 3.16 µM, first compound 3.16 µM
# [24] = second compound 3.16 µM, first compound 10 µM
# [25] = second compound 10 µM, first compound 0.0316 µM
# [26] = second compound 10 µM, first compound 0.1 µM
# [27] = second compound 10 µM, first compound 0.316 µM
# [28] = second compound 10 µM, first compound 1 µM
# [29] = second compound 10 µM, first compound 3.16 µM
# [30] = second compound 10 µM, first compound 10 µM
# 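Also: compound exposure lasted 7 days after spheroids had grown for 3 days.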
Compound,IC50 (second compound 0.1 µM) [µM],IC50 (second compound 0.316 µM) [µM],IC50 (second compound 1 µM) [µM],IC50 (second compound 3.16 µM) [µM],IC50 (second compound 10 µM) [µM],"viability, T/C [1] [%]","viability, T/C [2] [%]","viability, T/C [3] [%]","viability, T/C [4] [%]","viability, T/C [5] [%]","viability, T/C [6] [%]","viability, T/C [7] [%]","viability, T/C [8] [%]","viability, T/C [9] [%]","viability, T/C [13] [%]","viability, T/C [14] [%]","viability, T/C [19] [%]","viability, T/C [20] [%]","viability, T/C [25] [%]","viability, T/C [26] [%]",further results
O=C(C=Cc1cccc(S(=O)(=O)Nc2ccccc2)c1)NO + Cc1ccccc1N=Nc1ccc(NC(=O)c2ccnn2C)c(C)c1,> 10,> 10,> 10,> 10,> 10,91.2,109,111,110,108,97.8,87.9,99.4,106,97.5,118,103,102,109,114,"viability, T/C [10]: 114%; viability, T/C [11]: 97.3%; viability, T/C [12]: 95.4%; viability, T/C [15]: 111%; viability, T/C [16]: 116%; viability, T/C [17]: 101%; viability, T/C [18]: 96.2%; viability, T/C [21]: 107%; viability, T/C [22]: 115%; viability, T/C [23]: 103%; viability, T/C [24]: 81.5%; viability, T/C [27]: 116%; viability, T/C [28]: 122%; viability, T/C [29]: 97%; viability, T/C [30]: 85.2%"
CC(C)c1c(-c2ccccc2)nc2c(C#N)c[nH]n2c1=O + Cc1cncc(-c2nc(NCCc3c[nH]c4ccccc34)c3ncn(C(C)C)c3n2)c1,> 10,> 10,> 10,> 10,< 0.0316,98.9,103,101,107,107,111,104,109,101,118,118,60.4,66.4,4.82,4.89,"viability, T/C [10]: 116%; viability, T/C [11]: 96.4%; viability, T/C [12]: 96.8%; viability, T/C [15]: 121%; viability, T/C [16]: 125%; viability, T/C [17]: 108%; viability, T/C [18]: 101%; viability, T/C [21]: 65%; viability, T/C [22]: 58.9%; viability, T/C [23]: 58.2%; viability, T/C [24]: 66.4%; viability, T/C [27]: 5.56%; viability, T/C [28]: 4.11%; viability, T/C [29]: 4.63%; viability, T/C [30]: 6.54%"
Cn1ncnc1C1c2n[nH]c(=O)c3cc(F)cc(c23)NC1c1ccc(F)cc1 (stereo not given) + CC(CO)NC(=O)c1cc(-c2ccc(Cl)cc2)nn(-c2cnn(C)c2)c1=O,> 0.1,> 0.1,> 0.1,> 0.1,> 0.1,102,98.9,–,–,–,–,86.2,103,–,101,102,92.9,84.2,80.1,79.5,"viability, T/C (second compound 0.1 µM, first compound 0.000316 µM): 102%; viability, T/C (second compound 0.1 µM, first compound 0.001 µM): 113%; viability, T/C (second compound 0.1 µM, first compound 0.00316 µM): 104%; viability, T/C (second compound 0.1 µM, first compound 0.01 µM): 108%; viability, T/C (second compound 0.316 µM, first compound 0.000316 µM): 105%; viability, T/C (second compound 0.316 µM, first compound 0.001 µM): 102%; viability, T/C (second compound 0.316 µM, first compound 0.00316 µM): 120%; viability, T/C (second compound 0.316 µM, first compound 0.01 µM): 103%; viability, T/C (second compound 1 µM, first compound 0.000316 µM): 101%; viability, T/C (second compound 1 µM, first compound 0.001 µM): 99.3%; viability, T/C (second compound 1 µM, first compound 0.00316 µM): 102%; viability, T/C (second compound 1 µM, first compound 0.01 µM): 101%; viability, T/C (second compound 3.16 µM, first compound 0.000316 µM): 91.5%; viability, T/C (second compound 3.16 µM, first compound 0.001 µM): 95.3%; viability, T/C (second compound 3.16 µM, first compound 0.00316 µM): 97.6%; viability, T/C (second compound 3.16 µM, first compound 0.01 µM): 96.9%; viability, T/C (second compound 10 µM, first compound 0.000316 µM): 95.4%; viability, T/C (second compound 10 µM, first compound 0.001 µM): 81.3%; viability, T/C (second compound 10 µM, first compound 0.00316 µM): 91%; viability, T/C (second compound 10 µM, first compound 0.01 µM): 85.5%"
